Tested on: male albino rats (C.F.Y. strain)
Experiment: Hypolipidaemic assay: serum total cholesterol and triglyceride in rats given compound in diet
Assay type: in vivo
Settings: 0.1% in diet for seven days; for % Cholesterol Lowering: serum total cholesterol compared with controls; for % Triglyceride Lowering: serum triglyceride compared with controls
Procedure: Groups of 8 male albino rats (C.F.Y. strain), weighing approximately 150 g., were given a powdered commercially available diet (oxoid) to which compounds were added at level of 0.1%. These diets were fed for seven days. The rats were then killed and their serum total cholesterol and triglyceride were measured by the Technicon Autoanalyser.

| SMILES | % Cholesterol Lowering [%] | % Triglyceride Lowering [%] |
| --- | --- | --- |
| O=C(O)c1ccc(NCc2ccccc2)nc1 | 34 | 30 |
| O=C(O)c1ccc(NCCCc2ccccc2)nc1 | 16 | 38 |
